US9771377B2, “Synthesis of FR901464 and analogs with antitumor activity” (University of Pittsburgh—Of the Commonwealth System of …, priority 2012, dated 2017)
Where two headings read alike, the source gives them in different places.

Experiments:
[1] = test system: A549; assay: Growth inhibition assay (MTS), A549; format: cell-based; details: 3 to 5 days
Description: (§1) Meayamycin, 4-TEGylated meayamycin, and 4-TEGylated FR901464 (right fragment) compounds were produced using the above protocols. The compounds were dissolved in dimethyl sulfoxide (DMSO) as 10 mM stocks and stored at −20° C. Prior to assays being performed, aliquots were thawed at room temperature and dilutions were prepared in RPMI 1640 medium containing 2% DMSO at 2×the desired concentration prior to addition to the cells.
(§2) The cells were grown at 37° C. in an atmosphere containing 5% carbon dioxide in corning cell culture flasks (25 cm^2) in RPMI 1640 cell culture medium containing 10% fetal bovine serum, 1% Penicillin/Streptomycin, and 1% L-Glutamine.
(§3) Cells were plated in 96 well plates at an initial density of 2,000 cells per well in 100 μL of medium and were incubated for 24 hours prior to compound addition. […] The compound was added to the cells at 2× the desired concentration in 100 μL cell culture medium. The cells were then incubated for an additional 3 to 5 days. Cell proliferation was measured using a commercial MTS solution (20 μL per well). The absorbance (at 490 nm and 630 nm) was measured by a Spectromax M2 plate reader (Molecular Devices). Each concentration treatment was done in quadruplets and the final numbers were averaged.

[2] = test system: JHU 012; assay: Growth inhibition assay (MTS), JHU 012; format: cell-based; details: 3 to 5 days
Description: as §1, §2, §3

[3] = test system: HCT116; assay: Growth inhibition assay (MTS), HCT116; format: cell-based
Description: as §1, §2, §3

[4] = test system: MDA-MB-231; assay: Growth inhibition assay (MTS), MDA-MB-231; format: cell-based; details: 3 to 5 days
Description: as §1, §2, §3

[5] = test system: HEK-293-II; assay: Growth inhibition assay (MTS), HEK-293-II; format: cell-based
Description: as §1, §2, §3

[6] = test system: PCI 13; assay: Growth inhibition assay (MTS), PCI 13; format: cell-based; details: 3 to 5 days
Description: as §1, §2, §3

[7] = test system: cancer cell; assay: Cancer cell antiproliferative activity (background statement); format: cell-based
From the text: This pharmacological profile for FR901464 has drawn considerable interest, focusing on its potential as an anticancer agent.

[8] = test system: MCF-7; assay: Growth inhibition assay (MTS), MCF-7; format: cell-based
Description: as §1, §2
Cells were plated in 96 well plates at an initial density of 2,000 cells per well in 100 μL of medium and were incubated for 24 hours prior to compound addition. Serial two-fold dilutions were used in this experiment from 100 nM to 0.000191 nM. The compound was added to the cells at 2× the desired concentration in 100 μL cell culture medium. The cells were then incubated for an additional 3 to 5 days. Cell proliferation was measured using a commercial MTS solution (20 μL per well). The absorbance (at 490 nm and 630 nm) was measured by a Spectromax M2 plate reader (Molecular Devices). Each concentration treatment was done in quadruplets and the final numbers were averaged.

[9] = test system: pre-mRNA splicing in HEK-293-II cells; assay: HEK-293-II cell-based splicing inhibition assay (luciferase, RT-PCR)
Description: Splicing inhibition by PEGylated meayamycin was evaluated using the published HEK-293-II cell-based assay. In short, luciferase expression increases when pre-mRNA splicing is inhibited. Yang Gao et al., published online at Chem Bio Chem. Nov. 22, 2012 (DOI: 10.1002/cbic.201200558). […] (FIG. 1). Pre-mRNA splicing inhibition by 4-TEGylated meayamycin was examined in HEK-293-II cells over 72 h. The splicing inhibition, as manifested by the luciferase activity, in the 4-TEGylated meayamycin-treated cells persisted for 48 h, which was different from that in the meayamycin-treated cells. (FIG. 2).

[10] = test system: MCF-7 cells; details: MCF-7 cells at 20 nM; cited from earlier work
[11] = test system: tumor; details: mouse model; cited from earlier work
[12] = HEK-293-II, 3 to 5 days, MTS, read-out: GI50

## C=C[C@H]1OC(C)(C)C[C@@]2(CO2)[C@@H]1OCCOCCOCCOCCN=[N+]=[N-] [4-TEGylated FR901464 (right fragment)]
[1]; Homo sapiens
  GI50: 2200 nM
[2]
  GI50: 2000 nM
[3]; Homo sapiens, HCT-116, HCT116, 3 to 5 days, MTS, read-out: GI50
  GI50: 2200 nM
[3]; Homo sapiens, HCT-116, read-out: GI150, inhibition of HCT-116 proliferation
  IC50: 1500 nM
[4]; Homo sapiens
  GI50: 1500 nM
[5]; [12]
  GI50: 8900 nM
[6]
  GI50: 3700 nM
[7]
  cancer cell antiproliferative activity: high cancer cell antiproliferative activity

## CC(=O)O[C@@H](C)/C=C\C(=O)N[C@@H]1C[C@H](C)[C@H](C/C=C(C)/C=C/[C@H]2OC(C)(C)C[C@@]3(CO3)[C@@H]2OCCOCCOCCOCCN=[N+]=[N-])O[C@@H]1C [4-TEGylated meayamycin]
[8]; Homo sapiens, MCF7, 3 to 5 days
  GI50: 2.4 nM
[3]; Homo sapiens, HCT-116
  GI50: 0.1 nM
[5]
  GI50: 46 nM
[9]; HEK-293-II cells examined over 72 h, FIG. 2
  time the splicing inhibition (luciferase activity) persisted: 48 h
[9]; HEK-293-II cells, FIG. 1
  RT-PCR analysis of total RNA: pre-mRNA splicing: inhibited pre-mRNA splicing
[9]; HEK-293-II, luciferase, 16-h treatment, average of three independent experiments, read-out: IC150, inhibitory activity towards pre-mRNA splicing
  IC50: 2.4 nM

## CC(/C=C/[C@H]1OC(C)(C)C[C@@]2(CO2)[C@@H]1CCCOCCOCCOCCN=[N+]=[N-])=C\C[C@@H]1O[C@H](C)C(NC(=O)/C=C\[C@H](C)OC(=O)N2CCOCC2)C[C@@H]1C (stereo partly shown) [4-TEGylated-FR901464 analog]
[7]
  cancer cell antiproliferative activity: high cancer cell antiproliferative activity

## CC(=O)O[C@@H](C)/C=C\C(=O)N[C@@H]1C[C@H](C)[C@H](C/C=C(C)/C=C/[C@H]2O[C@](C)(O)C[C@@]3(CO3)[C@@H]2O)O[C@@H]1C [FR901464]
[10]
  mRNA levels of p53, p21, c-myc, and E2F-1: lowers the mRNA levels
[11]
  concentrations at which antitumor activity is exhibited: 0.056 to 0.18 mg/kg

## CC(=O)O[C@@H](C)/C=C\C(=O)N[C@@H]1C[C@H](C)[C@H](C/C=C(C)/C=C/[C@H]2OC(C)(C)C[C@@]3(CO3)[C@@H]2O)O[C@@H]1C [meayamycin, reference compound]
[8]; 3 to 5 days
  GI50: 0.8 nM
[1]
  GI50: 0.26 nM
[2]
  GI50: 4.7 nM
[3]; HCT116, 3 to 5 days, MTS, read-out: GI50
  GI50: 0.038 nM
[4]
  GI50: 0.07 nM
[5]; [12]
  GI50: 7.8 nM
[6]
  GI50: 4.8 nM

## C=C[C@H]1OC(C)(C)C[C@@]2(CO2)[C@@H]1O [right fragment without PEGylation, (3R,4R,5R)-7,7-dimethyl-5-vinyl-1,6-dioxaspiro[2.5]octan-4-ol]
[3]; even at 200 μM
  antiproliferation activity: no antiproliferation activity
